According to US11337971B2, “Dopamine D3 receptor selective antagonists/partial agonists and uses thereof” (THE UNITED STATES OF AMERICA, AS REPRESENTED BY THE …, priority 2018, dated 2022):
Like-named read-outs stand apart in the source and are kept apart here. Values belong to the molecule of their own block, whether it stands above or below them.

Columns and labels:
[1] = target: human D2R (Homo sapiens (Human), UniProt P14416); test: Radioligand competition binding, [3H]N-methylspiperone, HEK293 membranes expressing human D2R; conditions: read-out: D2R Ki ± SEM
Procedure, shortened: (§1)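 HEK293 membranes (10 μg protein) incubated 1 h at room temperature in EBSS with 0.2 mM sodium metabisulfite, 0.4 nM [3H]N-methylspiperone and compound (10 μM to 10 pM, triplicate). Nonspecific binding defined with 10 μM butaclamol; GF/B filtration.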

[2] = in vivo; set-up: species or system rat; conditions: rat, in vivo, po, 10 mg/kg
Protocol: Male Long-Evans rats with body weights ˜250 grams (Charles River Laboratories, Raleigh, N.C., USA) were used in this study. […] Food and water were available ad libitum throughout the experiments. All experimental procedures were conducted in accordance with the Guide for the Care and Use of Laboratory Animals and were approved by the Animal Care and Use Committee of the National Institute on Drug Abuse of the U.S. National Institutes of Health.
Experimental (oral gavage) procedures: The animals were gently restrained (grasp the animal by the loose skin of the neck and back) to immobilize the head but not such that the animals vocalize or show other signs of distress. Maintained the animal in an upright (vertical) position and passed the gavage needle (19-gauge) along the side of the mouth. Following the roof of the mouth, advanced the needle into the esophagus and toward the stomach. After the needle was passed to the correct length, the compound was injected. Then, the animals were deeply anesthetized with 100 mg/kg pentobarbital (i.p.), and then blood (˜1 ml) was obtained via cardiac puncture and brain was dissected at different time points (15 min, 30 min, 60 min, 2 h, 4 h, and 8 h, n=3 rats per time point) after oral drug administration.
These solutions were stored at −20° C. Losartan (IS) was dissolved in DMSO at 10 mM concentration that was further diluted in acetonitrile to obtain a final concentration of 500 nM and the solutions were stored at −20° C.
Standard Curve and Quality Control (QC) Sample Preparation: Standard curve plasma samples were prepared using naïve rat plasma, by serial dilution of the stock solution, with 8 standards and 4 QCs, ranging from 10-50,000 pmol/mL.
Standard curve brain samples were prepared using naïve rat brain. The tissue was homogenized in acetonitrile (Dilution Factor; DF=3), crushed, and centrifuged at 10,000 rpm for 10 minutes. The resulting supernatant was used as the standard curve matrix. The standard curve was subsequently prepared by serial dilution of the stock solution, with 7 standards and 4 QCs, ranging from 30-50000 pmol/mL.
Extraction Procedure: Test compounds were extracted from plasma samples by protein precipitation using acetonitrile. Compounds were extracted from brain samples by placing weighed tissue into 2 times w/v of acetonitrile (DF=3), crushed, centrifuged at 10,000 rpm for 10 minutes, and the resultant supernatant was used as the sample solution. Briefly standards, QCs, and samples (25 μL) were mixed with 100 μL acetonitrile containing 0.5 μM Losartan (internal standard; IS) in low retention microcentrifuge tubes. The mixture was vortexed for 1 min and centrifuged at 10,000 rpm for 10 min at 5° C. 50 μL of supernatant was transferred to a 250 μL polypropylene autosampler vials and mixed with 50 μL water, and sealed with a Teflon cap. A volume of 3 μL was injected onto the ultra-performance liquid chromatography (UPLC) instrument for quantitative analysis using a temperature-controlled autosampler operating at 10° C.
Calibration curves for all test compounds were computed using the ratio of the peak area of analyte to the internal standard by using a quadratic regression with 1/× weighting. The parameters of each calibration curve were used to back-calculate concentrations and to obtain values for the QC samples and unknown samples by interpolation.

[3] = target: T1, 5-HT1A (Homo sapiens (Human), UniProt P08908); test: 5-HT1A [35S]GTPγS binding functional assay; type: biochemical
[4] = target: 5-HT2C (Homo sapiens (Human), UniProt P28335); test: 5-HT2C [125I]DOI binding; conditions: read-out: 5-HT2C [125I]DOI Ki ± SEM
[5] = target: T1, 5-HT1A; test: 5-HT1A [3H]-8-OH-DPAT binding; conditions: read-out: 5-HT1A [3H]-8-OH-DPAT Ki ± SEM
[6] = target: 5-HT2A (Homo sapiens (Human), UniProt P28223); test: 5-HT2A [125I]DOI binding; conditions: read-out: 5-HT2A [125I]DOI Ki ± SEM
[7] = target: human D4R (Homo sapiens (Human), UniProt P21917); test: Radioligand competition binding, [3H]N-methylspiperone, HEK293 membranes expressing human D4R; conditions: Table 1A
Protocol: Binding at dopamine D2-like receptors was determined using previously described methods. (Chen et al. “Tranylcypromine substituted cis-hydroxycyclobutylnaphthamides as potent and selective dopamine D(3) receptor antagonists.” J. Med. Chem. 2014, 57, 4962-4968) Membranes were prepared from HEK293 cells expressing human D2R, D3R or D4R, grown in a 50:50 mix of DMEM and Ham's F12 culture media, supplemented with 20 mM HEPES, 2 mM L-glutamine, 0.1 mM non-essential amino acids, 1× antibiotic/antimycotic, 10% heat-inactivated fetal bovine serum, and 200 μg/mL hygromycin (Life Technologies, Grand Island, N.Y.) and kept in an incubator at 37° C. and 5% CO2. Upon reaching 80-90% confluence, cells were harvested using pre-mixed Earle's Balanced Salt Solution (EBSS) with […] EDTA (Life Technologies) and centrifuged at 3000 rpm for 10 min at 21° C. The supernatant was removed and the pellet was resuspended in 10 mL hypotonic lysis buffer (5 mM MgCl2.6H2O, 5 mM Tris, pH 7.4 at 4° C.) and centrifuged at 20,000 rpm for 30 min at 4° C. The pellet was then resuspended in fresh EBSS buffer made from 8.7 g/L Earle's Balanced Salts without phenol red (US Biological, Salem, Mass.), 2.2 g/L sodium bicarbonate, pH to 7.4. A Bradford protein assay (Bio-Rad, Hercules, Calif.) was used to determine the protein concentration and membranes were diluted to 500 μg/mL and stored in a −80° C. freezer for later use.
Radioligand competition binding experiments were conducted using thawed membranes. Test compounds were freshly dissolved in 30% DMSO and 70% H2O to a stock concentration of 100 μM. To assist the solubilization of free-base compounds, 10 μl of glacial acetic acid was added along with the DMSO. Each test compound was then diluted into 13 half-log serial dilutions using 30% DMSO vehicle; final test concentrations ranged from 10 μM to 10 pM. Previously frozen membranes were diluted in fresh EBSS to a 100 μg/mL (for hD2R or hD3R) or 200 μg/mL (hD4R) stock for binding. Radioligand competition experiments were conducted in glass tubes containing 300 μl fresh EBSS buffer with 0.2 mM sodium metabisulfite, 50 μl of diluted test compound, 100 μl of membranes (10 μg total protein for hD2R or hD3R, 20 μg total protein for hD4R), and 50 μl of [^3H]N-methylspiperone (0.4 nM final concentration; Perkin Elmer). Nonspecific binding was determined using 10 μM butaclamol (Sigma-Aldrich, St. Louis, Mo.) and total binding was determined with 30% DMSO vehicle. All compound dilutions were tested in triplicate and the reaction incubated for one hour at room temperature. The reaction was terminated by filtration through Whatman GF/B filters, presoaked for one hour in 0.5% polyethylenimine, using a Brandel R48 filtering manifold (Brandel Instruments, Gaithersburg, Md.). The filters were washed 3 times with 3 mL of ice cold EBSS buffer and transferred to scintillation vials. 3 mL CytoScint liquid scintillation cocktail (MP Biomedicals, Solon, Ohio) was added and vials were counted using a Perkin Elmer Tri-Carb 2910 TR liquid scintillation counter (Waltham, Mass.). IC50 values for each compound were determined from dose-response curves and Ki values were calculated using the Cheng-Prusoff equation; these analyses were performed using GraphPad Prism version 5.00 for Windows (GraphPad Software, San Diego, Calif.). Reported Ki values were determined from least three independent experiments.

[8] = target: human dopamine D3R (Homo sapiens (Human), UniProt P35462); test: D3R mitogenesis assay: stimulation or inhibition of quinpirole-stimulated mitogenesis in CHO cells; type: cell-based; conditions: for IC50: inhibition of quinpirole-stimulated mitogenesis
[9] = target: human D3R (Homo sapiens (Human), UniProt P35462); test: Radioligand competition binding, [3H]N-methylspiperone, HEK293 membranes expressing human D3R; conditions: for Ki: read-out: D3R Ki ± SEM; for D2/D3: ratio of Ki values
Procedure, shortened: as §1

[10] = Phase I metabolic stability in rat liver microsomes; type: in vitro ADME; conditions: phase I metabolic stability in rat liver microsomes
Excerpt: Rat Liver Microsome Metabolic Stability: Test compounds including 3-F analogues (C4a, C4b, C5a, C5b) and 29, 19 as well as the R-, S-enantiomers of C4a, C5a, 29 and 19 were screened for phase I metabolic stability in rat liver microsomes.

[11] = Table 1B, [3H]-N-methylspiperone competition, D2LR, 96-well plates
[12] = Table 3b, read-out: 5-HT1A [35S]GTPγS binding Agonist EC50 ± SEM
[13] = Table 1A, HEK 293 cells transfected with hD3R, [3H]N-methylspiperone

Sequence of human D4R (P21917 whole entry): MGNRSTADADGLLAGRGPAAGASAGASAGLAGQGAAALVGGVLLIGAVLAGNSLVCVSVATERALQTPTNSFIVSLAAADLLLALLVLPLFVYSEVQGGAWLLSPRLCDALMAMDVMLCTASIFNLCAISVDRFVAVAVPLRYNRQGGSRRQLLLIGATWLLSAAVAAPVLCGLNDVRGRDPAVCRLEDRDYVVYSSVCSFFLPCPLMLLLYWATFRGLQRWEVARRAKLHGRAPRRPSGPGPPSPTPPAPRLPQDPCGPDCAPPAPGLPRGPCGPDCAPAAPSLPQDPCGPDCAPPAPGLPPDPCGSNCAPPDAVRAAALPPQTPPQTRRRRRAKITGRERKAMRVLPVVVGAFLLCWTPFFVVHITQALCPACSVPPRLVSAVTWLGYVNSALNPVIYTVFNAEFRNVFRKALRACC
T1 sequence (P08908 whole entry, species assumed): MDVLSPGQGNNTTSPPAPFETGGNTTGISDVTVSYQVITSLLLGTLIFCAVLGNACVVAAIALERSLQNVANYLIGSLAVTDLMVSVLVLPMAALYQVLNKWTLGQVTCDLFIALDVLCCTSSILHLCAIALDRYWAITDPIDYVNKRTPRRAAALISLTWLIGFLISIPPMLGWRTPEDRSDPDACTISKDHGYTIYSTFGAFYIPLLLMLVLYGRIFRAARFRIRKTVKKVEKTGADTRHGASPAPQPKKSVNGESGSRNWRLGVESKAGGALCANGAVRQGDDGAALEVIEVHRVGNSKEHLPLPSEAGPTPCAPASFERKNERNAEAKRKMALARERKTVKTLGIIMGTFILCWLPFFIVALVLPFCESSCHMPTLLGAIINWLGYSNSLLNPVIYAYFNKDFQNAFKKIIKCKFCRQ
Sequence of 5-HT2A (P28223 whole entry, species assumed): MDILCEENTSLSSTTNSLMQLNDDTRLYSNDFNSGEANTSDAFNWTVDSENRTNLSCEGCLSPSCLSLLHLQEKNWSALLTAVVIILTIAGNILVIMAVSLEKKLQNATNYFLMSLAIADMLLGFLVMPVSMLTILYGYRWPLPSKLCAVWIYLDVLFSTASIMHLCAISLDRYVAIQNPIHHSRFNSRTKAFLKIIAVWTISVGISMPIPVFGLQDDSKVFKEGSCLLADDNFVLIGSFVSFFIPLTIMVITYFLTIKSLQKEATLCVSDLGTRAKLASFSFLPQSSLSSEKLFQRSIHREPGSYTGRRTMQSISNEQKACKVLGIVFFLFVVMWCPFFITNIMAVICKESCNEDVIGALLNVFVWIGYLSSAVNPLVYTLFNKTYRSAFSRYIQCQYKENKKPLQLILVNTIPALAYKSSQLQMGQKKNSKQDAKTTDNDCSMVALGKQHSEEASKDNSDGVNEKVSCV
Sequence of human D2R (P14416 whole entry): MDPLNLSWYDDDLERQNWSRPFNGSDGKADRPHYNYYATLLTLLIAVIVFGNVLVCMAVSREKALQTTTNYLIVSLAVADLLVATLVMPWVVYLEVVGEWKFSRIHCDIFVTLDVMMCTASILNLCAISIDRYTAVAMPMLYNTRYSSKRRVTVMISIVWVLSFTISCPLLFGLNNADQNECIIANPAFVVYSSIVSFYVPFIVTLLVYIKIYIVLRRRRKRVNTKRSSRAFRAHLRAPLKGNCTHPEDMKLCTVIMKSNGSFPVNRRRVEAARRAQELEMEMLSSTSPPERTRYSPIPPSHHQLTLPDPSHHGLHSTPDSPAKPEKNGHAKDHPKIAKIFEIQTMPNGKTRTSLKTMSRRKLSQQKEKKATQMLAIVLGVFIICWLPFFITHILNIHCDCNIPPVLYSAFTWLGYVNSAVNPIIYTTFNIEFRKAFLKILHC
Sequence of 5-HT2C (P28335 33-458, species assumed): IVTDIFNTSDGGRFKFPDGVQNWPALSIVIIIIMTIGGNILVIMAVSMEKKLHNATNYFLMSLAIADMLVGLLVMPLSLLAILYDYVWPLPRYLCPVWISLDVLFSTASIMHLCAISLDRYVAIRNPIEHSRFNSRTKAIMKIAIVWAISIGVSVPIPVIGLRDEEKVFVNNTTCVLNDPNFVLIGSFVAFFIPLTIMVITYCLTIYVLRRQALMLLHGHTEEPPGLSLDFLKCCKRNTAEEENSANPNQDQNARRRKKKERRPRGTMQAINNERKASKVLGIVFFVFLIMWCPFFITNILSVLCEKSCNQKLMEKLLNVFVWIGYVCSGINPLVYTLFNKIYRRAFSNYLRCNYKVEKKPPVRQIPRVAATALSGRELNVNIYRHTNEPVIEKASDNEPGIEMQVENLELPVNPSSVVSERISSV
Sequence of human dopamine D3R (P35462 whole entry): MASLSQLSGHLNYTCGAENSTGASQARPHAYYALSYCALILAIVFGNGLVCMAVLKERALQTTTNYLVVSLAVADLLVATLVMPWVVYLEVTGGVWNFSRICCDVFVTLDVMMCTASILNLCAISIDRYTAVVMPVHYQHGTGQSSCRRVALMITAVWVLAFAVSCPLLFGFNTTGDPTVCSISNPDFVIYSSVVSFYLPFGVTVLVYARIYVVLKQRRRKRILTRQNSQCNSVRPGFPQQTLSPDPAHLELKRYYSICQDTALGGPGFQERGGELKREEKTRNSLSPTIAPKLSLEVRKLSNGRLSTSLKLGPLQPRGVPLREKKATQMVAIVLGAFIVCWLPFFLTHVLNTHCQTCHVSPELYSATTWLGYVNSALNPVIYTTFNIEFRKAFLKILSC
Sequence of human D3R (P35462 whole entry): as above

Structure (SMILES): CCc1cccc(N2CCN(C[C@@H](O)CCNC(=O)c3cc4ccccc4[nH]3)CC2)c1Cl [(S)-19, (S)-N-(4-(4-(2-chloro-3-ethylphenyl)piperazin-1-yl)-3-hydroxybutyl)-1H-indole-2-carboxamide]
Ki [1, 11]: 200 ± 57.9 nM
Ki ([1]; Table 1C): 219 ± 66.2 nM
AUC(0-t) ([2]; male, Long-Evans): 2.68 ± 0.208 µM·h
Cmax ([2]; male, Long-Evans): 601 ± 108 nM
brain exposure (AUC0-t) [2]: 16665 ± 1205 pmol·h/g
brain penetration [2]: highly brain penetrable
EC50 [3, 12]: 2060 ± 580 nM
Ki ([4]; Table 3b): 1110 ± 360 nM
Ki ([5]; Table 3b): 131 ± 12 nM
Ki ([6]; Table 3b): 940 ± 130 nM

Ki ([7]; [3H]N-methylspiperone, read-out: D4R Ki ± SEM): 356 ± 64.4 nM
D4/D2 ([7]; ratio of Ki values): 56
D4/D3 ([7]; ratio of Ki values): 2327
Ki ([1]; Table 1A, HEK 293 cells transfected with hD2LR, [3H]N-methylspiperone): 6.34 ± 0.959 nM
IC50 ([8]; Table 2a, read-out: Antagonist IC50 ± SEM): 18.5 ± 6.3 nM
EC50 ([8]; Table 2a, stimulation of mitogenesis, read-out: Agonist EC50 ± SEM): 410 ± 130 nM
EC50 ([3]; Table 3a, read-out: 5HT1A [35S]GTPγS binding Agonist EC50 ± SEM): 31 ± 10 nM
Ki ([4]; Table 3a): 18.7 ± 4.5 nM
Ki ([5]; Table 3a): 26 ± 8.1 nM
Ki ([6]; Table 3a): 2.41 ± 0.82 nM
D3R Ki ± SEM (nM) [9, 13]: subnanomolar
Ki [9, 13]: 0.153 ± 0.00527 nM
D2/D3 ([9]; Table 1A): 41
Structure (SMILES): CCc1cccc(N2CCN(CCCCNC(=O)c3cc4ccccc4o3)CC2)c1Cl [Compound 20, N-(4-(4-(2-Chloro-3-ethylphenyl)piperazin-1-yl)butyl)benzofuran-2-carboxamide]

Ki [1, 11]: 295 ± 30.1 nM
Ki ([1]; Table 1C): 328 ± 33.5 nM
IC50 ([8]; Table 2b, read-out: Antagonist IC50 ± S.E.M.): 450 ± 160 nM
EC50 [3, 12]: 351 ± 84 nM
Ki ([4]; Table 3b): 464 ± 36 nM
% intact/parent remaining [10]: 34%
Ki ([5]; Table 3b): 117 ± 14 nM
Ki ([6]; Table 3b): 336 ± 19 nM
Ki ([9]; Table 1B, [3H]-N-methylspiperone competition, 96-well plates): 2.09 ± 0.484 nM
D2/D3 ([9]; Table 1B): 141
D2/D3 ([9]; Table 1C): 134
Ki ([9]; Table 1C): 2.45 ± 0.51 nM
Structure (SMILES): CCc1cccc(N2CCN(CC(F)CCNC(=O)c3cc4ccccc4o3)CC2)c1Cl (racemic) [Compound C5b, N-(4-(4-(2-chloro-3-ethylphenyl)piperazin-1-yl)-3-fluorobutyl)benzofuran-2-carboxamide]
